The values that follow come from publication PMC4992173, “Divergent synthesis and identification of the cellular targets of deoxyelephantopins” (Nature Communications, 2016).

Assay [1] has as its target T1, PPARγ (Homo sapiens, UniProt P37231).
T1 sequence (P37231 1-505): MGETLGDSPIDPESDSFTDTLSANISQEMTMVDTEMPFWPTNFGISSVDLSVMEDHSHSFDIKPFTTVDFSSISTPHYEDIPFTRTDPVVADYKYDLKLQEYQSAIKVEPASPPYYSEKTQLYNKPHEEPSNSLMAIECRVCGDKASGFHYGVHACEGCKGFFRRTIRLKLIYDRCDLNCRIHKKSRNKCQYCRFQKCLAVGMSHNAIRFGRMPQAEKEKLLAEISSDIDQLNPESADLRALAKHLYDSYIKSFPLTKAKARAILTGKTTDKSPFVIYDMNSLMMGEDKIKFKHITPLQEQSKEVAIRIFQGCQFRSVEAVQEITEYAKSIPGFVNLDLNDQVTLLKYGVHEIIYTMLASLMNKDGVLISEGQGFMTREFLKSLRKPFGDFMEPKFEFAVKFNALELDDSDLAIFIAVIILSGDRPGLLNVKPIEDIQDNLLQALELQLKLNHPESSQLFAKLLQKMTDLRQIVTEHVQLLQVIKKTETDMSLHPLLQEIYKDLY
Nature of the assay: Gel-based in situ competition of PPARγ overexpressed in HeLa cells. The format is cell-based. Set-up: host or cells: HeLa. The following applies: HeLa cells expressing PPARγ, 20 µM in situ 4 h, then 10 µM 24c-Cy3.

Assay [2] concerns the target T2, endogenous PPARγ (Homo sapiens, UniProt P37231).
T2 construct: endogenous PPARγ was successfully enriched and quantified from the DMSO-treated Caco-2 cells; endogenous in cells; host or cells: Caco-2
In words: Targeted competitive proteomics of endogenous PPARγ in Caco-2 cells. The format is cell-based. The note with it: Caco-2 cells treated in situ with 20 μM, lysate then 10 μM 24c; n=6. The procedure: On the basis of the reported interaction between deoxyelephantopin and PPARγ and because MCF7 cells are known to express very low levels of this protein, we investigated in a separate experiment whether deoxyelephantopin indeed covalently binds PPARγ. The recombinant transcription factor was spiked into MCF7 lysates to 30 nM final concentration and successfully enriched by the methacrylate ester probe 24c, as evidenced from LC–MS/MS-based label-free quantification (LFQ)[48]. […] Gratifyingly, endogenous PPARγ was successfully enriched and quantified from the DMSO-treated Caco-2 cells, whereas DEP pretreatment efficiently competed PPARγ enrichment (>95%; Fig. 7a). […]
Figure 7 Identification of PPARγ as target of deoxyelephantopin and screening of DEP derivatives as PPARγ antagonists. (a) Quantification of endogenous PPARγ enriched from Caco-2 cells using 10 μM 24c following in situ treatment with DEP (20 μM) or DMSO (normalized LFQ values±s.d. are shown; n=6). […] Quantification of fluorescence intensity in the competitive screening for PPARγ antagonists (bottom; values±s.d. are shown; n=3).
Samples were analyzed by LC-MS/MS (see below) and the MS data was processed with […]
Samples were analyzed by LC-MS/MS (see below) using inclusion lists containing m/z and charge of the expected peptides of indicated proteins (see Figure 6c γ . was processed with MaxQuant (see below). […]

Molecules are shown by their SMILES.

`C=C(C)C(=O)O[C@H]1CC2=C[C@@H](C/C(C)=C/[C@H]3OC(=O)C(=C)[C@H]13)OC2=O` [deoxyelephantopin]: the “competition of PPARγ labelling by 24c-Cy3” value in assay [1] is listed as “efficient competition”. Besides, in assay [2], the “competition of endogenous PPARγ enrichment by 24c” value is on record as above 95%.
